Laboratory results: patent US9121022B2, “Method for controlling herbicide-resistant plants” (priority 2010, dated 2015)

How the values were obtained:
[1] = test system: Nicotiana benthamiana phytoene desaturase; experiment: topical PDS oligonucleotides/polynucleotides on tobacco, bleaching and chlorophyll (Example 10); assay type: in vivo; settings: another assay
Description: The target gene used was a Nicotiana benthamiana phytoene desaturase (SEQ ID NO:2), shown in FIG. 10; the segment consisting of nucleotides 421-1120 of SEQ ID NO:2 (underlined text in FIG. 10) was used to design a 700-mer dsRNA polynucleotide (“PDS 700-mer”) and the segment consisting of nucleotides 914-1113 of SEQ ID NO:2 (bolded underlined text in FIG. 10) was used to design a 200-mer dsRNA polynucleotide (“PDS 200-mer”). FIG. 11 schematically depicts the location of the sequences of these oligonucleotides and polynucleotides in relation to the […] (SEQ ID NO:2) sequence. Non-plant sequences obtained from corn rootworm (“CRW”), SEQ ID NOs:27, 28, 29, and 30 were used as non-homologous controls. Some of the polynucleotides included a T7 promoter sequence (indicated by lower-case text in Table 3) that is a promoter recognized by a bacteriophage T7 RNA polymerase.
The following procedure was used for all assays described in this example. Four-week old Nicotiana benthamiana plants were used in all assays. Plants were treated with 0.1% SILWET L-77® brand surfactant solution freshly made with ddH2O. Two fully expanded leaves per plant (one cotyledon, one true leaf) were dipped into the SILWET L-77® brand surfactant solution for a few seconds, and allowed to dry for 15-30 minutes before application of the polynucleotide composition. Final concentration for each oligonucleotide or polynucleotide was 25 microM (in 0.01% SILWET L-77® brand surfactant, 5 mM sodium phosphate buffer, pH 6.8) unless otherwise stated. 20 microliters of the solution was applied to the top surface of each of the two pre-treated leaves to provide a total of 40 microliters (1 nmol oligonucleotide or polynucleotide) for each plant. Leaf bleaching was observed 3 days post treatment.
FIG. 13 illustrates phenotypes observed at day 12 after treatment in another assay of the effect from twelve combinations of polynucleotides or oligonucleotides (see Table 4). Table 4 also lists observations of visible bleaching of the plants at day 5 after treatment and the results of chlorophyll measurements taken at days 7 and 12 after treatment. Chlorophyll measurements are an indication of suppression of the target gene phytoene desaturase, and measurements were taken at 6 spots on the apical area, focussing on visibly bleached leaves or (in plants without visible bleaching) on leaves in equivalent locations on the plants; lower chlorophyll measurement values indicate suppression of phytoene desaturase.

[2] = test system: Nicotiana benthamiana plants (endogenous PDS, EPSPS, RuBisCO genes); experiment: PDS, EPSPS or RuBisCO anti-sense polynucleotides on Nicotiana benthamiana, plant height and phenotype (Example 33); assay type: in vivo
Description: An anti-sense polynucleotide with the sequence […] (SEQ ID NO:34) was designed for the endogenous Nicotiana benthamiana phytoene desaturase (PDS) gene, which has the cDNA sequence fragments […] […] (SEQ ID NO:38). Anti-sense polynucleotides with the sequences […] (SEQ ID NO:279), […] (SEQ ID NO:280), […] (SEQ ID NO:281), […] (SEQ ID NO:282), […] (SEQ ID NO:283), and […] (SEQ ID NO:284) were designed for the endogenous Nicotiana benthamiana 5-enolpyruvylshikimate-3-phosphate synthase (EPSPS) gene, based on the Nicotiana benthamiana EPSPS cDNA sequence […] […] (SEQ ID NO:285), […] […] (SEQ ID NO:286), and […] […] (SEQ ID NO:287). Anti-sense polynucleotides with the sequences […] (AK195, RBCS—1-2-3-4, SEQ ID NO:288), […] (AK196, RBCS—1-2-3-4, SEQ ID NO:289), […] (AK197, RBCS—1-2-3-4, SEQ ID NO:290), […] (AK198, RBCS—1-2, SEQ ID NO:291), […] (AK199, RBCS—1-2, SEQ ID NO:292), […] (AK200, RBCS—3-4, SEQ ID NO:293), […] (AK201, RBCS—3-4, SEQ ID NO:294), and […] (AK202, RBCS—3-4, SEQ ID NO:295) were designed for the endogenous Nicotiana benthamiana ribulose-1,5-bisphosphate carboxylase oxygenase (RuBisCO) gene, based on the Nicotiana benthamiana chloroplastic RuBisCO small chain 2A cDNA sequence fragments • […] […]

**Q.** Which results are given for “CATCTCCTTTAATTGTACTGC (DNA, backbone not given here) [PDS 21-mer anti-sense ssDNA]”?
**A.** bleaching of apical leaves (FIG. 15) [1]: apical leaf bleaching observed; plant height (FIGS. 36A-36C) ([2]; 12 days (PDS and EPSPS) or 10 days (RuBisCO) after treatment): severe stunting; other phenotype ([2]; PDS 25 nanomoles, EPSPS and RuBisCO 50 nanomoles of each polynucleotide per plant): bleaching
